Earlier results in publication PMC3792011 (Clinical Pharmacology : Advances and Applications, 2013).
“And” between values parts separate entries of the source, which are not always exact repeats. Equal values may be shown once.

Tests used:
[1] = treatment guidelines
[2] = steady state; bibliographic data

Recommended upper limit of plasma concentration (risk of hyperbilirubinemia) [1]: < 1.1 µmol/L
AUC, geometric mean (CV %) [2]: 65.4 (0.1) μmol · h/L
AUC, mean (SD) [2]: 76.4 (50.1) μmol · h/L
Cmax_SS_ATZ, geometric mean (CV %) [2]: 6.2 (0.1) μmol/L
Cmax_SS_ATZ, mean (SD) [2]: 7.4 (4.3) μmol/L
Cmin_SS_ATZ, geometric mean (CV %) [2]: 0.9 μmol/L and 0.9 (0.1) μmol/L
Cmin_SS_ATZ, mean (SD) [2]: 1.2 (1.2) μmol/L
T-half, mean (SD) [2]: 8.6 (2.3) h
SMILES: COC(=O)N[C@H](C(=O)N[C@@H](Cc1ccccc1)[C@@H](O)CN(Cc1ccc(-c2ccccn2)cc1)NC(=O)[C@@H](NC(=O)OC)C(C)(C)C)C(C)(C)C [ATZ, Atazanavir]
